Numbers after ± are expanded uncertainties.
Experiment: wn = mass fraction of the nth substance listed
Conditions: 288.15 K, 100 kPa, Liquid, Pycnometric method

## O=P([O-])(O)O.[K+] [monopotassium phosphate] + O
w1 = 0.1653
  mass density: 1122.9 ± 2.6 kg/m3

## [Cl-].[K+] [potassium chloride] + O
w1 = 0.2472
  mass density: 1168.2 ± 2.9 kg/m3

## O=S(=O)([O-])[O-].[K+].[K+] [potassium sulfate] + O
w1 = 0.0912
  mass density: 1075.6 ± 2.4 kg/m3
